{"source": "patent US20150168420A1", "about": "“BIOORTHOGONAL CHEMICAL INDUCERS OF REVERSIBLE DIMERIZATION FOR CONTROL OF PROTEIN FUNCTION IN CELLS” (MAX-PLANCK-GESELLSCHAFT ZUR FÖRDERUNG DER WISSENSCHAFTEN …, priority 2012, published 2015)", "key": {"[1]": {"biological_target": "ECFP-eDHFR and YFP-FKBP(F36V) (UniProt P0ABQ4+P62942, F37V)", "test": "FRET titration of ligand-induced heterodimerization of recombinant fusion proteins", "format": "binding", "details": "400 nM ECFP-eDHFR and 400 nM YFP-FKBP(F36V)"}, "eDHFR and FKBP(F36V)": {"biological_target": "eDHFR and FKBP(F36V) (UniProt P0ABQ4+P62942, F37V)", "test": "Size exclusion chromatography and SDS-PAGE of eDHFR / FKBP(F36V) mixture with ligand", "format": "binding", "procedure": "FIG. 1: Efficiency and specificity of SLF′-TMP (compound 13) binding (comp. example 2). • In the absence of SLF′-TMP (solid line) or in the presence of 100 μM SLF′-TMP (compound 13, dashed line). • a) size exclusion chromatography profile • b) SDS-PAGE analysis\nA size exclusion chromatography profile of a mixture of 100 μM eDHFR and FKBP(F36V) was performed in the absence or the presence of 100 μM SLF′-TMP (compound 13) (see FIG. 1a).\nA SDS-PAGE analysis of fractions from the gel filtration was carried out in the absence and the presence of the ligand SLF′-TMP (compound 13), respectively (see FIG. 1b)."}}}
{"molecule": "CCC(C(=O)N1CCCCC1C(=O)O[C@H](CCc1ccc(OC)c(OC)c1)c1cccc(OCC(=O)NCCCOCCOCCOCCCNC(=O)COc2c(OC)cc(Cc3cnc(N)nc3N)cc2OC)c1)c1cc(OC)c(OC)c(OC)c1", "note": "(stereo partly shown) [SLF′-TMP]", "values": [{"measurement": "FRET signal (ratio of fluorescence 523 nm / 475 nm) upon titration", "setting": "[1]", "value": "dose-dependent increase"}, {"measurement": "Kd", "setting": "[1]; quadratic fit, read-out: dissociation constant Kd from FRET titration", "value": "120 ± 40", "unit": "nM"}, {"measurement": "binding to FKBP(F36V) and eDHFR by size exclusion chromatography", "setting": "eDHFR and FKBP(F36V); 100 μM eDHFR and FKBP(F36V), 100 μM ligand", "value": "binds effectively"}, {"measurement": "binding to FKBP(F36V) and eDHFR by SDS-PAGE of gel filtration fractions", "setting": "eDHFR and FKBP(F36V); presence versus absence of ligand", "value": "binds to FKBP(F36V) and eDHFR"}]}
